Measurements published in patent publication US11434205B2, “Substituted imidazole carboxylate derivatives and the use thereof” (priority 2018, dated 2022).
Values joined by “and” are separate entries in the source; they are usually repeats but may differ in a detail not shown here. Identical values can stand only once. “Also recorded” adds a separate entry of the source. Like-named read-outs stand apart in the source and are kept apart here. Marks after values point to notes of the source that are not given here.

Experiments:
rats [1] = experiment: Pharmacological characteristics at equivalent doses (2×ED50) in rats; details: 2×ED50, tail vein; for Adverse reactions: Red urine (incidence): DMSO solution (DMSO alone 10/10); for Adverse reactions: Tremor (incidence): animals affected/animals; for Onset time: time of LORR
Experimental: Comparison of Pharmacological Characteristics of the Compounds at Equivalent Doses (2×ED50) in Rats
Adult male Sprague-Dawley rats (250-300 g) were selected for the experiment (n=8). […] The drugs were administered at a dose twice their ED50 through the tail vein of rats in a volume of 0.6 mL and at a rate of 0.1 mL/s. In addition, the time of LORR was recorded as the onset time of anesthesia. […] Furthermore, the duration of the pharmacological effects is sufficient to meet the time requirements for rapid induction of general anesthesia and for diagnostic examinations, some short invasive clinical examinations, or operations.

rats [2] = test system: rats
Experimental: (§1) Adult male Sprague-Dawley rats (250-300 g) were selected for the experiment. […] The anesthesia effects of the compounds were assessed in rats using a LORR assay and a period >30 s was considered as an indicator of general anesthesia. Then the up and down method was used to determine 50% effective dose (ED50). The drugs were administered through the tail vein of rats in a volume of 0.6 mL and at a rate of 0.1 mL/s.

rats [3] = type: in vivo, rat; details: for recovery time of the test animals' righting reflex: rats of the MAP/HR figures, 2×ED50, tail vein, same value in min
Experimental: The Effects of the Compounds on the Circulatory Function were Measured in Rats Using a Small Animal Implanted Physiological Signal Telemetry System
The anesthetic activity of the compounds was assessed in rats using a LORR assay and the up and down method was used to determine ED50. […] A small animal implantable physiological signal telemetry system from DSI (Data Science International, Inc.) was used to measure the changes in heart rate (HR) and blood pressure in rats during 30 min after administration. Then mean arterial pressure (MAP) and HR were used as representative indicators to determine hemodynamic stability of the compounds of the present invention in rats.
A small animal implantable physiological signal telemetry system from DSI (Data Science International, Inc.) including implants (RATHD-521, DSI, United States), receiver boards (RPC-1, DSI, United States), signal conversion devices (DEM, DSI, USA), perfusion glue (DSI, USA), fibrin membrane (DSI, USA), etc.
First, animal models were established. A left ventricular catheter, an abdominal aortic catheter and ECG wires were placed into rats. At least one week after surgery, data were recorded.
Administration procedure: rats were put into a restraint device with a 20 G indwelling catheter placed into a lateral tail vein. After administration of 0.2 mL heparin, a pre-filled extension tube was attached and taped to the tail vein to secure the extension tube. Then the rats were removed from the restraint device to a cage before placing them together on the signal receiver. […] Finally, the pharmacological effects, adverse reactions, and behavioural manifestations of the rats were observed and recorded
Data collection: After setting the data collection parameters on the software, the power of the implant was turned on to start data collection. In this experiment, data recording frequency was set to 15 s. Data collection was continuously recorded for 30 min before and after administration of the drugs in rats. After data acquisition, the test was stopped.

rats [4] = experiment: Loss of righting reflexes (LORR) assay in rats, ED50 by up and down method; type: in vivo, rat; details: tail vein; for ED50: Rattus norvegicus, class symbols
Experimental: The Anesthetic Activity of the Compounds was Assessed in Rats Using a Loss of Righting Reflexes (LORR) Assay
as §1

rats [5] = type: in vivo, rat; details: rats of the MAP/HR figures, 2×ED50, tail vein
rats [6] = test system: rats; remark: listed apart in the source
Experimental: Pharmacological Effects of the Compounds on Continuous Infusion in Rats
Adult male Sprague-Dawley rats with body weight ranging from 250 to 300 gm were selected for continuous infusion test. […] Time to recovery of righting reflex from stopping infusion, and time to fully awake from stopping infusion were recorded.

[7] = test system: secretion of corticosterone, H295R cell line; experiment: cells; type: cell-based; details: for EC50: read-out: EC50 (Corticosterone)
Experimental: (§2) The Effects of the Compounds on Adrenocortical Function In Vitro Test
(§3) Then secretion of the cortisol and corticosterone in the supernatant, was measured using HPLC-MS/MS method to determine whether the compounds of the present invention had adrenotoxic potential.

[8] = test system: secretion of cortisol, H295R cell line; experiment: cells; type: cell-based; details: for EC50: read-out: EC50 (Cortisol)
Experimental: as §2, §3

[9] = continuous tail vein infusion at 2×MIR, LORR maintained 1 hour, Table D4
[10] = H295R cell line, 0.1-10000 nM, HPLC-MS/MS, Table D3
[11] = emulsion, continuous infusion at 2×MIR
[12] = continuous tail vein infusion at 2×MIR, LORR maintained 1 hour, Table C4
[13] = continuous tail vein infusion at 2×MIR, LORR maintained 1 hour, Table E4
[14] = H295R cell line, 0.1-10000 nM, HPLC-MS/MS, Table E3
[15] = H295R, 0.1-10000 nM, HPLC-MS/MS

## C=C=CC(C)(C)OC(=O)c1c(F)ncn1[C@H](C)c1ccccc1 [Compound E19]
Rats [1]
  Righting reflex duration: 0.80 ± 0.30 min
  Adverse reactions: Red urine (incidence): urine (8/8)
  Adverse reactions: Tremor (incidence): (3/8), Red
  Onset time: 0.34 ± 0.13 min
Rats [2]
  Approximate therapeutic index: >40
  Minimal lethal dose: >4 mg/kg
Rats [3]
  recovery time of the test animals' righting reflex: 0.93 min
Rats [4]
  ED50: 0.01 to 0.1 mg/kg
Rats [5]
  recovery time of the test animals' righting reflex: 56 s

## CC#CC(C)(C)OC(=O)c1c(F)ncn1[C@H](C)c1ccccc1 [Compound E17]
Rats [1]
  Adverse reactions: Muscle twitching (incidence): (1/8),
  Righting reflex duration: 3.12 ± 1.61 min
  Adverse reactions: Red urine (incidence): (8/8)
  Onset time: 0.26 ± 0.07 min
Rats [2]
  Approximate therapeutic index: >32
  Minimal lethal dose: >9 mg/kg
Rats [3]
  recovery time of the test animals' righting reflex: 3.27 min
Rats [4]
  ED50: 0.1 to 0.5 mg/kg
Rats [5]
  recovery time of the test animals' righting reflex: 196 s

## C[C@H](c1ccccc1)n1cnc(F)c1C(=O)OC1COC1 [Compound E10]
Rats [1]
  Righting reflex duration: 2.59 ± 0.85 min
  Adverse reactions: Red urine (incidence): (8/8)
  Onset time: 0.21 ± 0.05 min
Rats [2]
  Approximate therapeutic index: >14
  Minimal lethal dose: >10 mg/kg
Rats [3]
  recovery time of the test animals' righting reflex: 2.70 min
Rats [4]
  ED50: 0.5 to 1 mg/kg
Rats [5]
  recovery time of the test animals' righting reflex: 162 s

## CC(C)OC(=O)c1c(F)ncn1[C@H](C)c1ccccc1 [Compound E24]
Rats [1]
  Righting reflex duration: 1.00 ± 0.29 min
  Adverse reactions: Red urine (incidence): (8/8)
  Onset time: 0.38 ± 0.14 min
Rats [2]
  Approximate therapeutic index: >45
  Minimal lethal dose: >4 mg/kg
Rats [3]
  recovery time of the test animals' righting reflex: 1.25 min
Rats [4]
  ED50: 0.01 to 0.1 mg/kg
Rats [5]
  recovery time of the test animals' righting reflex: 75 s

## CCC(C)(C)OC(=O)c1c(F)ncn1[C@H](C)c1ccccc1 [Compound E28]
Rats [1]
  Righting reflex duration: 2.69 ± 1.07 min
  Adverse reactions: Red urine (incidence): (8/8)
  Onset time: 0.43 ± 0.19 min
Rats [2]
  Approximate therapeutic index: >16
  Minimal lethal dose: >6 mg/kg
Rats [3]
  recovery time of the test animals' righting reflex: 2.5 min
Rats [4]
  ED50: 0.1 to 0.5 mg/kg
Rats [5]
  recovery time of the test animals' righting reflex: 150 s

## CC#CC(C)OC(=O)c1c(F)ncn1[C@H](C)c1ccccc1 (stereo partly shown) [Compound E16]
Rats [1]
  Righting reflex duration: 3.59 ± 1.22 min
  Adverse reactions: Red urine (incidence): (8/8)
  Onset time: 0.30 ± 0.09 min
Rats [2]
  Approximate therapeutic index: >20
  Minimal lethal dose: >4 mg/kg
Rats [3]
  recovery time of the test animals' righting reflex: 3.33 min
Rats [4]
  ED50: 0.1 to 0.5 mg/kg
Rats [5]
  recovery time of the test animals' righting reflex: 200 s

## C=CC#CC(C)OC(=O)c1c(F)ncn1[C@H](C)c1ccccc1 (stereo partly shown) [Compound E20]
Rats [1]
  Adverse reactions: Tongue stretching (incidence): (2/8),
  Righting reflex duration: 0.75 ± 0.21 min
  Adverse reactions: Red urine (incidence): (8/8)
  Onset time: 0.51 ± 0.16 min
Rats [2]
  Approximate therapeutic index: >80
  Minimal lethal dose: >5 mg/kg
Rats [3]
  recovery time of the test animals' righting reflex: 0.85 min
Rats [4]
  ED50: 0.01 to 0.1 mg/kg
Rats [5]
  recovery time of the test animals' righting reflex: 51 s

## C=C=CC1(OC(=O)c2cncn2[C@H](C)c2ccccc2)CSC1 [Compound D28]
Rats [1]
  Righting reflex duration: 5.09 ± 1.89 min
  Adverse reactions: Red urine (incidence): Red urine (8/8)
  Onset time: 0.25 ± 0.06 min
Rats [6]; [9]
  Onset time: 3 to 4 min
  Recovery time after stopping infusion: 13 to 16 min
  Types and incidence of adverse reactions: Tremor (2/6)
Rats [2]
  Approximate therapeutic index: >16
  Minimal lethal dose: >10 mg/kg
Rats [4]
  ED50: 0.01 to 0.1 mg/kg
[7]; [10]
  Corticosterone as an indicator to determine the presence of inhibition: 0
[7]; Homo sapiens, NCI-H295R
  EC50: > 10000 nM
[8]; [10]
  Cortisol as an indicator to determine the presence of inhibition: 0
[8]; Homo sapiens, NCI-H295R
  EC50: > 10000 nM

## C[C@H](c1ccccc1)n1cncc1C(=O)OCC1(C2CO2)CCC1 (stereo partly shown) [Compound A21]
Rats [1]
  Righting reflex duration: 1.75 ± 0.26 min
  Adverse reactions: Red urine (incidence): Red urine (8/8)
  Onset time: 0.27 ± 0.19 min
Rats [6]; after 1 hour infusion at 2×MIR
  Recovery time after stopping infusion: 15 to 25 min
Rats [6]; continuous infusion 2×MIR, in words
  Types and incidence of adverse reactions: No
Rats [6]; [11]
  Onset time: 3 to 4 min
Rats [2]
  Approximate therapeutic index: >16
  Minimal lethal dose: >5 mg/kg
Rats [4]
  ED50: 0.1 to 0.5 mg/kg
[7]; H295R, Table A3
  Corticosterone as an indicator to determine the presence of inhibition: 0
[7]; Homo sapiens, NCI-H295R
  EC50: > 1000 nM
[8]; H295R, Table A3
  Cortisol as an indicator to determine the presence of inhibition: 0
[8]; Homo sapiens, NCI-H295R
  EC50: > 1000 nM

## COC(=O)C1(OC(=O)c2cncn2[C@H](C)c2ccccc2)CC1 [CPMM, cyclopropyl methoxycarbonyl methylate, reference compound]
Rats [1]
  Adverse reactions: Convulsions (incidence): Convulsions (4/10), Tremor and 4/10 and Convulsions (4/10), and (4/10),
  Adverse reactions: Myoclonus (incidence): (5/10), Myoclonus (5/10); also recorded: Myoclonus (5/10)
  Righting reflex duration: 1.62 ± 0.63 min
  Adverse reactions: Tremor (incidence): (5/10), Myoclonus (5/10) and 5/10 and Tremor (5/10), and (5/10),
  Onset time: 0.26 ± 0.08 min
Rats [6]; after 1 hour infusion at 2×MIR
  Recovery time after stopping infusion: 7 to 8 min
Rats [6]; continuous infusion 2×MIR
  Adverse reactions: Convulsions (incidence): 3/6
  Adverse reactions: Myoclonus (incidence): Myoclonus (5/6)
  Adverse reactions: Tremor (incidence): 5/6
Rats [6]; [12]
  Onset time: 3 to 4 min
  Recovery time after stopping infusion: 7 to 8 min
Rats [6]; [9]
  Onset time: 3 to 4 min
  Recovery time after stopping infusion: 7 to 8 min
Rats [6]; [13]
  Onset time: 3 to 4 min
  Recovery time after stopping infusion: 7 to 8 min
Rats [6]; [11]
  Onset time: 3 to 4 min
Rats [2]
  Approximate therapeutic index: >10
  Minimal lethal dose: >7.8 mg/kg
Rats [3]; rats, 2×ED50, 30 min after administration
  effect on the circulatory function (MAP, HR): almost no inhibitory effect on the circulatory function
Rats [4]; brackets = 95% confidence limit
  ED50 (mg/kg): 0.78 (0.74-0.82)* mg/kg
[7]; [10]
  Corticosterone as an indicator to determine the presence of inhibition: 1
  EC50: > 100 nM
[7]; [14]
  Corticosterone as an indicator to determine the presence of inhibition: 1
  EC50: > 100 nM
[7]; [15]
  EC50: > 100 nM
[7]; H295R, Table A3
  Corticosterone as an indicator to determine the presence of inhibition: 1
[7]; H295R, Table B3
  Corticosterone as an indicator to determine the presence of inhibition: 1
[7]; H295R, Table C3
  Corticosterone as an indicator to determine the presence of inhibition: 1
[8]; [10]
  Cortisol as an indicator to determine the presence of inhibition: 1
  EC50: > 10 nM
[8]; [14]
  Cortisol as an indicator to determine the presence of inhibition: 1
  EC50: > 10 nM
[8]; [15]
  EC50: > 10 nM
[8]; H295R, Table A3
  Cortisol as an indicator to determine the presence of inhibition: 1
[8]; H295R, Table B3
  Cortisol as an indicator to determine the presence of inhibition: 1
[8]; H295R, Table C3
  Cortisol as an indicator to determine the presence of inhibition: 1
